Laboratory results reported in US7575930B2, “Method for analyzing oligosaccharides from blood plasma” (priority 2005, dated 2009).

Test: Monitoring of the plasma concentration of the main oligosaccharides of a VLMWH in human volunteers (plasma filtration + anion-exchange HPLC)
Assay type: in vivo
Procedure: A plasma sample with a volume of between 100 and 1000 μl is withdrawn and, if appropriate, the internal standard is added to the latter.
After homogenization, the resulting solution is introduced into a 30 kD Ultrafree 05 ultrafiltration cartridge (Millipore) rinsed beforehand with 250 μl of water by centrifuging at 10 000 rev/min for 5 minutes. The plasma is introduced into the upper part of the cartridge once or twice, if the amounts to be filtered are greater than 500 μl.
The cartridge is centrifuged at 10 000 rev/min for between 1 and 2 hours and then the filtrate is withdrawn. If appropriate, the second part of the plasma to be filtered is introduced into the upper part of the cartridge and the latter is again centrifuged. The exact amount of plasma introduced will have been weighed. The cartridge is centrifuged until the protein residue in the upper part of the cartridge represents no more than approximately 10% of the initial part.
The filtrate is withdrawn and 210 μl of 3M KCl per ml of plasma filtered are added to the concentrate.
After homogenization, the cartridge is centrifuged at 10 000 rev/min for between 1 and 4 hours. The cartridge is centrifuged until the protein residue in the upper part of the cartridge represents no more than approximately 10% of the initial part.
The second filtrate is withdrawn and 210 μl of 3M KCl per ml of plasma filtered are added a second time to the concentrate.
The third filtrate is withdrawn and 250 μl of water per ml of plasma filtered are added.
The filtrates are combined and diluted 5 fold in water, and the whole is injected directly in anion-exchange HPLC. Immediately before injection, the pH of the injected solution is adjusted to 3 by addition of 1N HCl.
The filtered plasma is analyzed by anion-exchange HPLC.
The columns used are IonPAc As11 columns (Dionex), with a length of 25 cm and an internal diameter of 2 mm. The detector used is a UV spectrophotometer equipped with an array of diodes.
The whole of the […] is injected after adjustment of the pH to 3 by addition of N HCl. The flow rate chosen is 0.22 ml/min; the column temperature is 40° C.
Elution is carried out in gradient mode. The two solutions used are:
Solvent A: NaH2PO4 2.5 mM, brought to pH 2.9 by addition of H3PO4
Solvent B: NaClO4 1N, NaH2PO4 2.5 mM, brought to pH 3.0 by addition of H3PO4
The elution gradient is as follows:
T=0 min: % B=3; T=40 min: % B=60; T=60 min: % B=80
A VLMWH with an average molecular weight of 2500 Da is administered at the target dose of 1.4 mg/kg to human volunteers. Blood samples are withdrawn at the times 0, 0.25 h, 0.5 h, 0.75 h, 1 h, 1.25 h, 1.5 h, 2 h, 2.5 h, 3 h, 3.5 h, 4 h, 4.5 h, 5 h, 6 h, 7 h, 8 h, 9 h, 10 h, 12 h, 14 h and 24 h after administration.
As the VLMWH used is a complex mixture of oligosaccharides, the study was limited to certain components chosen from this mixture.

[1] = 0 h after administration of VLMWH (2500 Da) 1.4 mg/kg
[2] = 0.25 h after administration of VLMWH (2500 Da) 1.4 mg/kg
[3] = 0.5 h after administration of VLMWH (2500 Da) 1.4 mg/kg
[4] = 0.75 h after administration of VLMWH (2500 Da) 1.4 mg/kg
[5] = 1 h after administration of VLMWH (2500 Da) 1.4 mg/kg
[6] = 1.25 h after administration of VLMWH (2500 Da) 1.4 mg/kg
[7] = 1.5 h after administration of VLMWH (2500 Da) 1.4 mg/kg
[8] = 2 h after administration of VLMWH (2500 Da) 1.4 mg/kg
[9] = 2.5 h after administration of VLMWH (2500 Da) 1.4 mg/kg
[10] = 3 h after administration of VLMWH (2500 Da) 1.4 mg/kg
[11] = 3.5 h after administration of VLMWH (2500 Da) 1.4 mg/kg
[12] = 4 h after administration of VLMWH (2500 Da) 1.4 mg/kg
[13] = 4.5 h after administration of VLMWH (2500 Da) 1.4 mg/kg
[14] = 5 h after administration of VLMWH (2500 Da) 1.4 mg/kg
[15] = 6 h after administration of VLMWH (2500 Da) 1.4 mg/kg
[16] = 7 h after administration of VLMWH (2500 Da) 1.4 mg/kg
[17] = 8 h after administration of VLMWH (2500 Da) 1.4 mg/kg
[18] = 9 h after administration of VLMWH (2500 Da) 1.4 mg/kg
[19] = 10 h after administration of VLMWH (2500 Da) 1.4 mg/kg
[20] = 12 h after administration of VLMWH (2500 Da) 1.4 mg/kg
[21] = 14 h after administration of VLMWH (2500 Da) 1.4 mg/kg

SMILES | plasma concentration [1] | plasma concentration [2] | plasma concentration [3] | plasma concentration [4] | plasma concentration [5] | plasma concentration [6] | plasma concentration [7] | plasma concentration [8] | plasma concentration [9] | plasma concentration [10] | plasma concentration [11] | plasma concentration [12] | plasma concentration [13] | plasma concentration [14] | plasma concentration [15] | plasma concentration [16] | plasma concentration [17] | plasma concentration [18] | plasma concentration [19] | plasma concentration [20] | further results
CC(=O)NC1C(OC2C(C(=O)O)OC(OC3C(COS(=O)(=O)O)OC(OC4C(C(=O)O)OC(OC5C(COS(=O)(=O)O)OC(O)C(NS(=O)(=O)O)C5O)C(OS(=O)(=O)O)C4O)C(NS(=O)(=O)O)C3OS(=O)(=O)O)C(O)C2O)OC(COS(=O)(=O)O)C(OC2OC(C(=O)O)=CC(O)C2O)C1O (stereo not shown) [ΔIIaIIsIs] | 0 nM | 50 nM | 100 nM | 100 nM | 100 nM | 120 nM | 110 nM | 110 nM | 90 nM | 80 nM | 90 nM | 100 nM | 100 nM | 90 nM | 80 nM | 100 nM | 70 nM | 70 nM | 70 nM | 80 nM | plasma concentration [21]: 70 nM; plasma concentration (24 h after administration of VLMWH (2500 Da) 1.4 mg/kg): 50 nM
O=C(O)C1=CC(O)C(OS(=O)(=O)O)C(OC2C(COS(=O)(=O)O)OC(OC3C(C(=O)O)OC(OC4C(COS(=O)(=O)O)OC(OC5C(C(=O)O)OC(OC6C(COS(=O)(=O)O)OC(O)C(NS(=O)(=O)O)C6O)C(OS(=O)(=O)O)C5O)C(NS(=O)(=O)O)C4O)C(OS(=O)(=O)O)C3O)C(NS(=O)(=O)O)C2O)O1 (stereo not shown) [ΔIsIsIs] | 0 nM | 20 nM | 40 nM | 30 nM | 40 nM | 40 nM | 30 nM | 30 nM | 20 nM | 20 nM | 20 nM | 10 nM | 10 nM | 10 nM | 10 nM | 10 nM | 0 nM | 0 nM | 0 nM | 0 nM | plasma concentration [21]: 0 nM
O=C(O)C1=CC(O)C(OS(=O)(=O)O)C(OC2C(COS(=O)(=O)O)OC(OC3C(C(=O)O)OC(OC4C(COS(=O)(=O)O)OC(O)C(NS(=O)(=O)O)C4O)C(OS(=O)(=O)O)C3O)C(NS(=O)(=O)O)C2O)O1 (stereo not shown) [ΔIsIs] | 0 nM | 160 nM | 240 nM | 210 nM | 200 nM | 190 nM | 190 nM | 150 nM | 100 nM | 90 nM | 70 nM | 70 nM | 60 nM | 50 nM | 40 nM | 30 nM | 20 nM | 10 nM | 10 nM | 10 nM | plasma concentration [21]: 0 nM
O=C(O)C1=CC(O)C(OS(=O)(=O)O)C(OC2C(COS(=O)(=O)O)OC(O)C(NS(=O)(=O)O)C2O)O1 (stereo not shown) [ΔIs] | 0 nM | 240 nM | 300 nM | 260 nM | 230 nM | 200 nM | 190 nM | 160 nM | 110 nM | 100 nM | 80 nM | 70 nM | 60 nM | 40 nM | 30 nM | 30 nM | 20 nM | 10 nM | 10 nM | 0 nM | plasma concentration [21]: 0 nM
